# Test results as given in ChEMBL document CHEMBL6121042, “Isolation of Antiplasmodial Oxazoles and Isoflavonoids from the Roots of Oxytropis trichophysa and Total Synthesis of Oxazole-type Alkaloids” (J Nat Prod, 2025).
# Activity calls are given as the source filed them. No cut-off for these calls is given here.
# Assays:
# [1] = Selectivity index, ratio of CC50 for human HFF cells to IC50 for Plasmodium falciparum 3D7; format: toxicity, cell-based; conditions: read-out: Selectivity Index
# [2] = Cytotoxicity against human HFF cells assessed as reduction in cell viability incubated for 72 hrs by CCK-8 assay; format: toxicity, cell-based
# Plasmodium falciparum = experiment: Antiplasmodial activity against Plasmodium falciparum 3D7 infected in red blood cells assessed as parasitic growth inhibition incubated for 72 hrs by SYBR Green I staining based analysis; format: functional, organism-based; conditions: for IC50: 3D7, 72 h
Compound,selectivity ratio [1],CC50 at 72 h [2],IC50 (Plasmodium falciparum),Activity (Plasmodium falciparum)
C[C@@H]1CC[C@H]2[C@@H](C)C(=O)O[C@@H]3O[C@@]4(C)CC[C@@H]1[C@]32OO4 [ARTEMISININ],> 7890,> 200 µM,0.025 µM,–
COc1cc([C@@H]2COc3cc(O)ccc3C2)c(O)c(OC)c1OC,–,–,–,inactive
COc1ccc([C@@H]2COc3cc(O)ccc3C2)c(OC)c1O,–,–,–,inactive
Oc1ccccc1-c1cnc(-c2ccccc2)o1,> 18.8,> 100 µM,4.6 µM,–
COc1c(O)cc([C@@H]2COc3cc(O)ccc3C2)c(O)c1OC,0.9,5.6 µM,6.2 µM,–
c1ccc(COc2ccc(-c3ncc(-c4ccccc4OCc4ccccc4)o3)cc2)cc1,14.8,72 µM,4.8 µM,–
COc1ccc([C@@H]2COc3cc(O)ccc3C2)c(O)c1OC,–,–,–,inactive
COc1c(O)cc2c(c1OC)O[C@H]1c3ccc(O)cc3OC[C@@H]21,–,–,–,inactive
Oc1ccc(O)c(-c2cnc(-c3ccccc3)o2)c1,9.4,69.3 µM,5.5 µM,–
COc1ccc2c(c1OC)O[C@H]1c3ccc(O)cc3OC[C@@H]21,–,–,–,inactive
COC1=C(OC)C(=O)C([C@@H]2COc3cc(O)ccc3C2)=CC1=O,2.3,13.7 µM,5.8 µM,–
Oc1cccc(-c2cnc(-c3ccccc3)o2)c1O,2.7,8.5 µM,3.1 µM,–
